Data on five molecules can be found in ChEMBL document CHEMBL3132774, “The advantage of biosensor analysis over enzyme inhibition studies for slow dissociating inhibitors characterization of hydroxamate-based matrix metalloproteinase-12 inhibitors” (Medchemcomm, 2013).

Molecules are shown by their SMILES.

Experiment [1] has as its target T1, Macrophage metalloelastase (Homo sapiens, UniProt P39900). Put plainly: Inhibition of human recombinant MMP12 using Mca-Pro-Leu-Gly-Leu-Dpa-Ala-Arg-NH2 as substrate incubated for 10 mins prior to substrate addition by spectrophotometry. The settings on record: read-out: Ki(app).
Target sequence in this assay (P39900 whole entry): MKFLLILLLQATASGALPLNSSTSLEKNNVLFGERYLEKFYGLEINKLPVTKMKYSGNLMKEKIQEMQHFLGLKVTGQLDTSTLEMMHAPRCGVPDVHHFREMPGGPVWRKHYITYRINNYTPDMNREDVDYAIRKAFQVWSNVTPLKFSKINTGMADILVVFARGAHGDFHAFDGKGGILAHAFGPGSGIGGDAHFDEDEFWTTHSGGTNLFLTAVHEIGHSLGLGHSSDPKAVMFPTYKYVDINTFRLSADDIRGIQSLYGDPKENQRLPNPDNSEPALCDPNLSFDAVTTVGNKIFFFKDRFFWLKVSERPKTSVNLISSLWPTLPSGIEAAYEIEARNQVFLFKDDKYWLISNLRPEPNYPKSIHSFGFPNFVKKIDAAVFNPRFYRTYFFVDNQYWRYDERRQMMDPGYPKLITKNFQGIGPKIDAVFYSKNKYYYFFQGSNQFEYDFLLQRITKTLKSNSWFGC
For experiment [2], the target named is T1, Macrophage metalloelastase. Put plainly: Time dependent inhibition of human recombinant MMP12 by progress curve enzyme inhibition assay. The settings on record: read-out: Ki(app).
Target sequence in this assay (P39900 whole entry): as above
Experiment [3] has as its target T1, Macrophage metalloelastase. Put plainly: Inhibition of human recombinant MMP12 by SPR assay.
Target sequence in this assay (P39900 106-470 limits assumed): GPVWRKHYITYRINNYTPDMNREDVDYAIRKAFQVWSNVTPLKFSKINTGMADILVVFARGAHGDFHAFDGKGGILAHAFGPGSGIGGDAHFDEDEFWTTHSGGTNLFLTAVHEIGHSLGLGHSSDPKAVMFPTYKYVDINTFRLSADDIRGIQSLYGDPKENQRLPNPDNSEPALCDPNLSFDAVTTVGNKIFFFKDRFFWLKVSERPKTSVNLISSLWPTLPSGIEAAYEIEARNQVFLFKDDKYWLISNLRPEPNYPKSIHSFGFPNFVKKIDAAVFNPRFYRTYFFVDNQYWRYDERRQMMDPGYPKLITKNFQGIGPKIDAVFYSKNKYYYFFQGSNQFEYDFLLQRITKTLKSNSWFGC

As for `CNC(=O)[C@H](Cc1c[nH]c2ccccc12)NC(=O)[C@@H](CC(=O)NO)CC(C)C` [ILOMASTAT], the values for the Ki in experiment [1] and in experiment [2] were 3.8 nM and 0.52 nM, respectively. The inhibition result in experiment [3] was “Dose-dependent effect”.

As for `CNC(=O)[C@H](Cc1ccccc1)NC(=O)[C@H](CCc1ccc(-c2cccnc2)cc1)CC(=O)O`, the Ki in experiment [1] stood at 48 nM. In addition, the inhibition entry in experiment [3] is “Dose-dependent effect”.

On to `COc1ccc(S(=O)(=O)N2CC(C)(C)CN(S(=O)(=O)c3ccc(OC)cc3)C2C(=O)NO)cc1`, for which the Ki stood at 1.9 nM in experiment [1] and 0.61 nM in experiment [2].

`CCN(CC)Cc1cc(C)c(N(Cc2ccccc2)S(=O)(=O)c2ccc(OC)cc2)cc1C(=O)NO`: the Ki stood at 30 nM in experiment [1] and 3.53 nM in experiment [2].

For the molecule `CNC(=O)[C@H](Cc1ccccc1)NC(=O)[C@H](CCc1ccc(-c2cccnc2)cc1)CC(=O)NO`, the Ki in experiment [1] was 1 nM.
